In brackets after ≈: the same amount, converted by molar mass.
Tested on: not listed separately
Assay: Thermodynamic solubility of the compound at pH 6.8
Assay type: physicochemical
Conditions: buffer

SMILES	Therm_solubility
Cn1cnc(S(=O)(=O)N2Cc3ccc(/C=C/C(=O)NO)cc3C2)c1	soluble
O=C(/C=C/c1ccc2c(c1)CN(S(=O)(=O)Cc1ccccc1)C2)NO	soluble
O=C(/C=C/c1ccc2c(c1)CN(S(=O)(=O)c1ccncc1)C2)NO	soluble
O=C(/C=C/c1ccc2c(c1)CN(S(=O)(=O)c1ccc(C(F)(F)F)cc1)C2)NO	soluble
O=C(/C=C/c1ccc2c(c1)CN(S(=O)(=O)c1cccc(C(F)(F)F)c1)C2)NO	soluble
COc1cccc(S(=O)(=O)N2Cc3ccc(/C=C/C(=O)NO)cc3C2)c1	soluble
CCCCS(=O)(=O)N1Cc2ccc(/C=C/C(=O)NO)cc2C1	soluble
O=C(/C=C/c1ccc2c(c1)CN(C(=O)c1cccnc1)C2)NO	soluble
O=C(CCCCCCC(=O)Nc1ccccc1)NO [VORINOSTAT]	19 µM
O=C(/C=C/c1ccc2c(c1)CN(S(=O)(=O)c1ccccc1)C2)NO	soluble
O=C(/C=C/c1ccc2c(c1)CN(S(=O)(=O)c1cccnc1)C2)NO	soluble
O=C(/C=C/c1ccc2c(c1)CN(S(=O)(=O)C1CC1)C2)NO	soluble
Cc1ccccc1S(=O)(=O)N1Cc2ccc(/C=C/C(=O)NO)cc2C1	soluble
O=C(/C=C/c1ccc2c(c1)CN(C(=O)Cc1ccccc1)C2)NO	soluble
CS(=O)(=O)N1Cc2ccc(/C=C/C(=O)NO)cc2C1	soluble

Same assay, conditions: buffer, read-out: Therm_solubility

SMILES	solubility thermodynamic [µM]
Cc1noc(-c2ccccc2)c1CCN1Cc2ccc(/C=C/C(=O)NO)cc2C1	490 (≈ 191 µg/mL)
O=C(/C=C/c1ccc2c(c1)CN(CCc1c[nH]c3ccccc13)C2)NO	490 (≈ 170 µg/mL)
Nc1ccccc1NC(=O)c1ccc(CNc2nccc(-c3cccnc3)n2)cc1 [MOCETINOSTAT]	33 (≈ 13.1 µg/mL)

Target: Voltage-gated inwardly rectifying potassium channel KCNH2 (Homo sapiens, UniProt Q12809)
Assay: Inhibition of human ERG by automated patch clamp assay
Conditions: not given

Sequence of Voltage-gated inwardly rectifying potassium channel KCNH2 (Q12809 whole entry): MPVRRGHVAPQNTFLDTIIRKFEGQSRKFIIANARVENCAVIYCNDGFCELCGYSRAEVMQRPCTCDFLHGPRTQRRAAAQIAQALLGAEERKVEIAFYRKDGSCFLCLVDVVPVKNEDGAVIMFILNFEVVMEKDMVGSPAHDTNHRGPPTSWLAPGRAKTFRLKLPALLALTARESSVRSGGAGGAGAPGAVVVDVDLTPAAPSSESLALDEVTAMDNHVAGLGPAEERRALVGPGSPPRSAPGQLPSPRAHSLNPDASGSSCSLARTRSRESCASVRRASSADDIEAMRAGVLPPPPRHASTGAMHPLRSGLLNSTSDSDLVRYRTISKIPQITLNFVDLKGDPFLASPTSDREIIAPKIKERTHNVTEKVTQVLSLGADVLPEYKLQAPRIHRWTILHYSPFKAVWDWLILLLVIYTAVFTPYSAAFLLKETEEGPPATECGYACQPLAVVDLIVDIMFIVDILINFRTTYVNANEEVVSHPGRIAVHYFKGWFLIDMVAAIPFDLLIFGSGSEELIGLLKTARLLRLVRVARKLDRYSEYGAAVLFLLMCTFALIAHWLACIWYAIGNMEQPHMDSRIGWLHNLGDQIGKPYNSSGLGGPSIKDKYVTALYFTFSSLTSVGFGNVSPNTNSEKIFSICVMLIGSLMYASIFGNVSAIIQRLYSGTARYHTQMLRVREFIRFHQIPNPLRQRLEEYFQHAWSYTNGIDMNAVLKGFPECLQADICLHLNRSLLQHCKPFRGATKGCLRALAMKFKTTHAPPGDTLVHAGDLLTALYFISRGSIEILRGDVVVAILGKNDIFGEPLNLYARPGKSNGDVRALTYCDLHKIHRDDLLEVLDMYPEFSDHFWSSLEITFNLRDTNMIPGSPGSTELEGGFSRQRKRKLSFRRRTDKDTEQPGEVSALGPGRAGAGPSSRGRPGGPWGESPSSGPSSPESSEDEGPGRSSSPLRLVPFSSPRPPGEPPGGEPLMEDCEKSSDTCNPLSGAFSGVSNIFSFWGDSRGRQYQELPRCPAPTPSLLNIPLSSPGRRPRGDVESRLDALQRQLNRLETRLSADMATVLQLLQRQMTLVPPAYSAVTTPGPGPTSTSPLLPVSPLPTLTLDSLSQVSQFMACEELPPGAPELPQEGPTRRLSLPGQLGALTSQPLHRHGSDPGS

SMILES	IC50 [nM]
Cn1cnc(S(=O)(=O)N2Cc3ccc(/C=C/C(=O)NO)cc3C2)c1	> 30000
O=C(/C=C/c1ccc2c(c1)CN(S(=O)(=O)Cc1ccccc1)C2)NO	> 30000
O=C(/C=C/c1ccc2c(c1)CN(S(=O)(=O)c1ccncc1)C2)NO	> 30000
O=C(/C=C/c1ccc2c(c1)CN(S(=O)(=O)c1cccc(C(F)(F)F)c1)C2)NO	> 30000
COc1cccc(S(=O)(=O)N2Cc3ccc(/C=C/C(=O)NO)cc3C2)c1	> 30000
O=C(/C=C/c1ccc2c(c1)CN(C(=O)c1cccnc1)C2)NO	> 30000
O=C(/C=C/c1ccc2c(c1)CN(S(=O)(=O)c1ccccc1)C2)NO	> 30000
O=C(/C=C/c1ccc2c(c1)CN(S(=O)(=O)c1cccnc1)C2)NO	> 30000
O=C(/C=C/c1ccc2c(c1)CN(S(=O)(=O)C1CC1)C2)NO	> 30000
CS(=O)(=O)N1Cc2ccc(/C=C/C(=O)NO)cc2C1	> 30000

Target: Cytochrome P450 3A4 (Homo sapiens, UniProt P08684)
Assay: not given
Conditions: not given

Sequence of Cytochrome P450 3A4 (P08684 whole entry): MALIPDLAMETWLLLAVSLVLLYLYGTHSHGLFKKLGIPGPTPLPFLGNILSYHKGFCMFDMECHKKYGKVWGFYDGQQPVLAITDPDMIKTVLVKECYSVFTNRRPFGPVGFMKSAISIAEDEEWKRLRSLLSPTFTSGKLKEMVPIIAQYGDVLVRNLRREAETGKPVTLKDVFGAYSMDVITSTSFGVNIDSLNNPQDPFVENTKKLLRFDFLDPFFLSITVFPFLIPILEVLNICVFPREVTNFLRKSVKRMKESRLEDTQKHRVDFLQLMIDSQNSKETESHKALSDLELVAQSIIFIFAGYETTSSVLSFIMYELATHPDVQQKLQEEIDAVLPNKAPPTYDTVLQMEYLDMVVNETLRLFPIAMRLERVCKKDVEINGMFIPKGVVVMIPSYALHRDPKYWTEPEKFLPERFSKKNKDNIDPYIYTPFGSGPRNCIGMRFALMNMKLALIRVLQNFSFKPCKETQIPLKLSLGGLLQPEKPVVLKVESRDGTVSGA

SMILES	IC50 [nM]
O=C(/C=C/c1ccc2c(c1)CN(CCc1c[nH]c3ccccc13)C2)NO	> 10000
O=C(/C=C/c1ccc2c(c1)CN(C(=O)Cc1ccccc1)C2)NO	> 50000

Tested on: not listed separately
Assay: Half life in rat liver microsomes
Assay type: ADME, Microsome
Conditions: not given

SMILES	half-life [min]
Cc1noc(-c2ccccc2)c1CCN1Cc2ccc(/C=C/C(=O)NO)cc2C1	6
O=C(/C=C/c1ccc2c(c1)CN(CCc1c[nH]c3ccccc13)C2)NO	5
Nc1ccccc1NC(=O)c1ccc(CNc2nccc(-c3cccnc3)n2)cc1 [MOCETINOSTAT]	31.3
O=C(CCCCCCC(=O)Nc1ccccc1)NO [VORINOSTAT]	114

Tested on: not listed separately
Assay: Half life in human liver microsomes
Assay type: ADME, Microsome
Conditions: not given

SMILES	half-life [min]
Cc1noc(-c2ccccc2)c1CCN1Cc2ccc(/C=C/C(=O)NO)cc2C1	17
Nc1ccccc1NC(=O)c1ccc(CNc2nccc(-c3cccnc3)n2)cc1 [MOCETINOSTAT]	37.8
O=C(CCCCCCC(=O)Nc1ccccc1)NO [VORINOSTAT]	405

Tested on: HCT-116
Assay: cells
Conditions: Homo sapiens
Description: Antiproliferative activity against human HCT116 cells

SMILES	IC50 [nM]
Cn1cnc(S(=O)(=O)N2Cc3ccc(/C=C/C(=O)NO)cc3C2)c1	8840
O=C(/C=C/c1ccc2c(c1)CN(S(=O)(=O)Cc1ccccc1)C2)NO	1120
Cc1noc(-c2ccccc2)c1CCN1Cc2ccc(/C=C/C(=O)NO)cc2C1	2200
O=C(/C=C/c1ccc2c(c1)CN(CCc1c[nH]c3ccccc13)C2)NO	220
O=C(/C=C/c1ccc2c(c1)CN(S(=O)(=O)c1ccc(C(F)(F)F)cc1)C2)NO	2430
O=C(/C=C/c1ccc2c(c1)CN(S(=O)(=O)c1cccc(C(F)(F)F)c1)C2)NO	2050
COc1cccc(S(=O)(=O)N2Cc3ccc(/C=C/C(=O)NO)cc3C2)c1	1130
CCCCS(=O)(=O)N1Cc2ccc(/C=C/C(=O)NO)cc2C1	3210
O=C(/C=C/c1ccc2c(c1)CN(S(=O)(=O)c1ccccc1)C2)NO	3420
O=C(/C=C/c1ccc2c(c1)CN(S(=O)(=O)c1cccnc1)C2)NO	4260
Cc1ccccc1S(=O)(=O)N1Cc2ccc(/C=C/C(=O)NO)cc2C1	2230
O=C(/C=C/c1ccc2c(c1)CN(C(=O)Cc1ccccc1)C2)NO	830

Target: Histone deacetylase 1 (Homo sapiens, UniProt Q13547)
Assay: not given
Conditions: not given

Sequence of Histone deacetylase 1 (Q13547 whole entry): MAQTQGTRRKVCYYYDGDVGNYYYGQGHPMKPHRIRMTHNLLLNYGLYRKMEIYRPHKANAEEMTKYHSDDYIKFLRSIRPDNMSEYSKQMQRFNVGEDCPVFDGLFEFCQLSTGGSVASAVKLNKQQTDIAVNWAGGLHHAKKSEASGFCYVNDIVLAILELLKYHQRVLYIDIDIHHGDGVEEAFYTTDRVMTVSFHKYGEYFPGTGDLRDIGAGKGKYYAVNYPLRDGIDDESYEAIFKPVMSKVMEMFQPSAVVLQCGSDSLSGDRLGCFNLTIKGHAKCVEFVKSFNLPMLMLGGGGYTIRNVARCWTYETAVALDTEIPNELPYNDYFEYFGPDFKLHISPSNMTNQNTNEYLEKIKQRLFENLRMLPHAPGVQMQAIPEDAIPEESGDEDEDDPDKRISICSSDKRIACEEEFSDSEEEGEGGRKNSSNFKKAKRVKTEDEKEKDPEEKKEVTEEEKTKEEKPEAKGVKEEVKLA

SMILES	IC50 [nM]
Cn1cnc(S(=O)(=O)N2Cc3ccc(/C=C/C(=O)NO)cc3C2)c1	140
O=C(/C=C/c1ccc2c(c1)CN(S(=O)(=O)Cc1ccccc1)C2)NO	120
Cc1noc(-c2ccccc2)c1CCN1Cc2ccc(/C=C/C(=O)NO)cc2C1	170
O=C(/C=C/c1ccc2c(c1)CN(CCc1c[nH]c3ccccc13)C2)NO	16
O=C(/C=C/c1ccc2c(c1)CN(S(=O)(=O)c1ccncc1)C2)NO	480
O=C(/C=C/c1ccc2c(c1)CN(S(=O)(=O)c1ccc(C(F)(F)F)cc1)C2)NO	160
O=C(/C=C/c1ccc2c(c1)CN(S(=O)(=O)c1cccc(C(F)(F)F)c1)C2)NO	160
COc1cccc(S(=O)(=O)N2Cc3ccc(/C=C/C(=O)NO)cc3C2)c1	92
CCCCS(=O)(=O)N1Cc2ccc(/C=C/C(=O)NO)cc2C1	150
O=C(/C=C/c1ccc2c(c1)CN(C(=O)c1cccnc1)C2)NO	380
O=C(/C=C/c1ccc2c(c1)CN(S(=O)(=O)c1ccccc1)C2)NO	190
O=C(/C=C/c1ccc2c(c1)CN(S(=O)(=O)c1cccnc1)C2)NO	150
O=C(/C=C/c1ccc2c(c1)CN(S(=O)(=O)C1CC1)C2)NO	790
Cc1ccccc1S(=O)(=O)N1Cc2ccc(/C=C/C(=O)NO)cc2C1	130
O=C(/C=C/c1ccc2c(c1)CN(C(=O)Cc1ccccc1)C2)NO	130
CS(=O)(=O)N1Cc2ccc(/C=C/C(=O)NO)cc2C1	630

— ChEMBL document CHEMBL1806458, “The design, synthesis and structure-activity relationships of novel isoindoline-based histone deacetylase inhibitors” (Bioorg Med Chem Lett, 2011)
